The IC50 is the point on the concentration scale where inhibition reaches its midpoint.

The target of the test is T1, vanilloid receptor (Rattus norvegicus, UniProt O35433).
T1 construct: DRG nerve cells from the primary culture of 2 days were equilibrated; endogenous in cells; host or cells: primary culture of dorsal root ganglion neurons from neonatal SD rats
T1 sequence (O35433 whole entry): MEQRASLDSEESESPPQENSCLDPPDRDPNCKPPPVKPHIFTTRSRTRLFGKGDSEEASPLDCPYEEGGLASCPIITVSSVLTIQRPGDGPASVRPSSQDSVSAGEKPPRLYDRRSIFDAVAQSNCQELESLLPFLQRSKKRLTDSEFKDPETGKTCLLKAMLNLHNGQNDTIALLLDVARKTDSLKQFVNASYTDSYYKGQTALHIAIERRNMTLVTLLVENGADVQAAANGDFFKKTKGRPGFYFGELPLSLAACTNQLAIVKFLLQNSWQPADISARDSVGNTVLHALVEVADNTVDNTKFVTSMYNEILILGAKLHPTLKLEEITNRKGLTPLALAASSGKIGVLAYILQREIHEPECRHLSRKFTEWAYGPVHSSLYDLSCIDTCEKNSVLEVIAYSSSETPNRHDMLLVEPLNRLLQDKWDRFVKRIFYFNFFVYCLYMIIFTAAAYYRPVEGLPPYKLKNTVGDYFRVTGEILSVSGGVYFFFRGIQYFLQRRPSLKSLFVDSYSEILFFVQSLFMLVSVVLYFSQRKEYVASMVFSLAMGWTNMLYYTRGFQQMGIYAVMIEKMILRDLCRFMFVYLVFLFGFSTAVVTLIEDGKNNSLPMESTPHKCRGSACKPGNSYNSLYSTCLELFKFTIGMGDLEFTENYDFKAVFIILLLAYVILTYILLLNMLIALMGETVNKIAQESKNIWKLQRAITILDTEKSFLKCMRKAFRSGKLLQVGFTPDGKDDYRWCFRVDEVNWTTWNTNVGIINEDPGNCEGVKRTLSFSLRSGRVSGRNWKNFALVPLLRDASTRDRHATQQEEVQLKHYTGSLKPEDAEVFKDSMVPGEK
Put plainly: 45Ca influx test in cultured neonatal rat DRG neurons, inhibition of capsaicin response. In kind it is cell-based. The following applies: neonatal rat DRG neurons, capsaicin 0.5 μM, 45Ca influx; read-out: Antagonist Calcium Uptake Test (IC50). A digest of the protocol: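 45Ca influx measured by scintillation counting of SDS-eluted neurons after 10 min at room temperature with test compound, 0.5 μM capsaicin (final) and 10 μCi/ml 45Ca in Ca/Mg-free HEPES-HBSS pH 7.4. Cells: primary DRG neurons from newborn SD rats, cultured 2 days with NGF and Ara-C.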
With `CCCCNc1nc(C(F)(F)F)ccc1/C=C/C(=O)N[C@@H](C)c1cc(F)c(NS(C)(=O)=O)c(F)c1` [Example 240, (S)-3-(2-Butylamino-6-trifluoromethyl-pyridin-3-yl)-N-[(1S)-(3,5-difluoro-4-methanesulfonylamino-phenyl)-ethyl]-acrylamide], the IC50 came to 200 nM.

Turning to `CC[C@@H](C)c1nc(C(F)(F)F)ccc1/C=C/C(=O)NCc1ccc(NS(C)(=O)=O)c(C)c1` [Example 241, (R)-3-(2-sec-Butyl-6-trifluoromethyl-pyridin-3-yl)-N-1-(4-methanesulfonylamino-3-methyl-benzyl)-acrylamide], the IC50 was determined as 34 nM.

As for `CC(C)c1nc(C(F)(F)F)ccc1/C=C/C(=O)N[C@H](C)c1cc(F)c(NS(C)(=O)=O)c(F)c1` [Example 242, (R)—N-[1-(3,5-Difluoro-4-methanesulfonylamino-phenyl)-ethyl]-3-(2-isopropyl-6-trifluoromethyl-pyridin-3-yl)-acrylamide], the IC50 turned out to be 25 nM.

As to `CCC(C)c1nc(C(F)(F)F)ccc1/C=C/C(=O)N[C@H](C)c1ccc(NS(C)(=O)=O)c(F)c1` (stereo partly drawn) [Example 243, (R)-3-(2-sec-Butyl-6-trifluoromethyl-pyridin-3-yl)-N-[1-(3-fluoro-4-methanesulfonylamino-phenyl)-ethyl]-acrylamide], the IC50 amounted to 41 nM.

For `CCNc1nc(C(F)(F)F)ccc1/C=C/C(=O)N[C@H](C)c1cc(F)c(NS(C)(=O)=O)c(F)c1` [Example 244, (R)—N-[1-(3,5-Difluoro-4-methanesulfonylamino-phenyl)-ethyl]-3-(2-ethylamino-6-trifluoromethyl-pyridin-3-yl)-acrylamide], the IC50 came out at 67 nM.

Regarding `CC(C)Cc1nc(C(F)(F)F)ccc1/C=C/C(=O)N[C@H](C)c1cc(F)c(NS(C)(=O)=O)c(F)c1` [Example 245, (R)—N-[1-(3,5-Difluoro-4-methanesulfonylamino-phenyl)-ethyl]-3-(2-isobutyl-6-trifluoromethyl-pyridin-3-yl)-acrylamide], the IC50 was found to be 24 nM.

For `CCNc1nc(C(F)(F)F)ccc1/C=C/C(=O)N[C@H](C)c1ccc(NS(C)(=O)=O)c(F)c1` [Example 246, N-[1-(3-Fluoro-4-methanesulfonylamino-phenyl)-ethyl]-3-(2-ethylamino)-6-trifluoromethyl-pyridin-3-yl-acrylamide], the IC50 was found to be 10 nM.

`CCNc1nc(C(F)(F)F)ccc1/C=C/C(=O)NCc1ccc(NS(C)(=O)=O)c(C)c1` [Example 247, N-(4-methanesulfonylamino-3-methyl-benzyl)-3-(2-ethylamino-6-trifluoromethyl)-pyridin-3-yl-acrylamide]: the IC50 amounted to 13 nM.

As for `CCCNc1nc(C(F)(F)F)ccc1/C=C/C(=O)NCc1cc(F)c(NS(C)(=O)=O)cc1F` [Example 248, N-(2,5-Difluoro-4-methanesulfonylamino-benzyl)-3-(2-propylamino-6-trifluoromethyl-pyridin-3-yl)-acrylamide], the IC50 was determined as 120 nM.

For `C#Cc1cc(CNC(=O)/C=C/c2ccc(C(F)(F)F)nc2NCC)cc(F)c1NS(C)(=O)=O` [Example 249, 3-(2-Ethylamino-6-trifluoromethyl-pyridin-3-yl)-N-(3-ethynyl-5-fluoro-4-methanesulfonylamino-benzyl)-acrylamide], the IC50 amounted to 25 nM.

Regarding `C=Cc1cc(CNC(=O)/C=C/c2ccc(C(F)(F)F)nc2NCC)cc(F)c1NS(C)(=O)=O` [Example 250, 3-(2-Ethylamino-6-trifluoromethyl-pyridin-3-yl)-N-(3-fluoro-4-methanesulfonylamino-5-vinyl-benzyl)-acrylamide], the IC50 was 32 nM.

For the molecule `CCCc1nc(C(F)(F)F)ccc1/C=C/C(=O)NCc1ccc(NS(C)(=O)=O)cc1Cl` [Example 251, N-(2-Chloro-4-methanesulfonylamino-benzyl)-3-(2-propyl-6-trifluoromethyl-pyridin-3-yl)-acrylamide], the IC50 was 700 nM.

In the case of `CCCc1nc(C(F)(F)F)ccc1/C=C/C(=O)NCc1ccc(NS(C)(=O)=O)cc1` [Example 252, N-(4-Methanesulfonylamino-benzyl)-3-(2-propyl-6-trifluoromethyl-pyridin-3-yl)-acrylamide], the IC50 was 330 nM.

For the molecule `CCCNc1nc(C(F)(F)F)ccc1/C=C/C(=O)NCc1ccc(NS(C)(=O)=O)c(Cl)c1` [Example 254, N-(3-Chloro-4-methanesulfonylamino-benzyl)-3-(2-propylamino-6-trifluoromethyl)-pyridin-3-yl-acrylamide], the IC50 came to 150 nM.

In the case of `CCNc1nc(C(F)(F)F)ccc1/C=C/C(=O)NCc1cc(F)c(NS(C)(=O)=O)cc1F` [Example 255, N-(2,5-Difluoro-4-methanesulfonylamino-benzyl)-3-(2-ethylamino-6-trifluoromethyl)-pyridin-3-yl-acrylamide], the IC50 came out at 130 nM.

As to `CCNc1nc(C(F)(F)F)ccc1/C=C/C(=O)NCc1ccc(NS(C)(=O)=O)c(F)c1` [Example 256, 3-(2-Ethylamino-6-trifluoromethyl-pyridin-3-yl)-N-(3-fluoro-4-methanesulfonylamino-benzyl)-acrylamide], the IC50 stood at 68 nM.

Turning to `CCNc1nc(C(F)(F)F)ccc1/C=C/C(=O)NCc1cc(F)c(NS(C)(=O)=O)c(F)c1` [Example 257, N-(3,5-Difluoro-4-methanesulfonylamino-benzyl)-3-(2-ethylamino-6-trifluoromethyl-pyridin-3-yl)-acrylamide], the IC50 is 56 nM.

Regarding `CCNc1nc(C(F)(F)F)ccc1/C=C/C(=O)NCc1cc(C)c(NS(C)(=O)=O)c(F)c1` [Example 258, 3-(2-Ethylamino-6-trifluoromethyl-pyridin-3-yl)-N-(3-fluoro-4-methanesulfonylamino-5-methyl-benzyl)-acrylamide], the IC50 came to 21 nM.

In the case of `CCNc1nc(C(F)(F)F)ccc1/C=C/C(=O)NCc1cc(F)c(NS(C)(=O)=O)c(C#N)c1` [Example 259, N-(3-Cyano-5-fluoro-4-methanesulfonylamino-benzyl)-3-(2-ethylamino-6-trifluoromethyl-pyridin-3-yl)-acrylamide], the IC50 stood at 190 nM.

For `C#Cc1cc(CNC(=O)C#Cc2ccc(C(F)(F)F)nc2NCCCC)cc(F)c1NS(C)(=O)=O` [Example 260, 3-(2-Butylamino-6-trifluoromethyl-pyridin-3-yl)-propynoic acid, 3-ethynyl-5-fluoro-4-methanesulfonylamino-benzylamide], the IC50 was 810 nM.

As to `CCCCc1nc(C(F)(F)F)ccc1C#CC(=O)NCc1cc(F)c(NS(C)(=O)=O)c(F)c1` [Example 261, 3-(2-Butyl-6-trifluoromethyl-pyridin-3-yl)-propynoic acid 3,5-difluoro-4-methanesulfonylamino-benzylamide], the IC50 was 350 nM.

Turning to `CCCCc1nc(C(F)(F)F)ccc1C#CC(=O)N[C@H](C)c1cc(F)c(NS(C)(=O)=O)c(F)c1` [Example 262, 3-(2-Butyl-6-trifluoromethyl-pyridin-3-yl)-propynoic acid [1-(3,5-difluoro-4-methanesulfonylamino-phenyl)-ethyl]-amide], the IC50 amounted to 150 nM.

Take `CCCCc1nc(C(F)(F)F)ccc1C#CC(=O)NCc1ccc(NS(C)(=O)=O)cc1Cl` [Example 263, 3-(2-Butyl-6-trifluoromethyl-pyridin-3-yl)-propynoic acid 2-chloro-4-methanesulfonylamino-benzylamide]: the IC50 came out at 4700 nM.

As to `CS(=O)(=O)Nc1ccc(CNC(=O)/C=C/c2ccc(C(F)(F)F)nc2CCc2ccccc2)cc1` [Example 264, N-(4-Methanesulfonylamino-benzyl)-3-(2-phenethyl-6-trifluoromethyl-pyridin-3-yl)-acrylamide], the concentration for half-maximal inhibition (IC50) stood at 340 nM.

On to `CC(C)Cc1nc(C(F)(F)F)ccc1/C=C/C(=O)NCc1ccc(NS(C)(=O)=O)cc1` [Example 265, 3-(2-Isobutyl-6-trifluoromethyl-pyridin-3-yl)-N-(4-methanesulfonylamino-benzyl)-acrylamide], for which the IC50 stood at 770 nM.

Turning to `CCCCc1nc(C(F)(F)F)ccc1C#CC(=O)NCc1ccc(NS(C)(=O)=O)cc1` [Example 266, 3-(2-Butyl-6-trifluoromethyl-pyridin-3-yl)-propynoic acid 4-methanesulfonylamino-benzylamide], the IC50 was found to be 1400 nM.

As to `C=CS(=O)(=O)Nc1ccc(CNC(=O)/C=C/c2ccc(C(F)(F)F)nc2NC(C)C)cc1` [Example 267, N-(4-Ethenesulfonylamino-benzyl)-3-(2-isopropylamino-6-trifluoromethyl-pyridin-3-yl)-acrylamide], the IC50 amounted to 450 nM.

For the molecule `C=CS(=O)(=O)Nc1ccc(CNC(=O)/C=C/c2ccc(C(F)(F)F)nc2CCc2ccccc2)cc1` [Example 268, N-(4-Ethenesulfonylamino-benzyl)-3-(2-phenethyl-6-trifluoromethyl-pyridin-3-yl)-acrylamide], the IC50 was 2900 nM.

In the case of `C=CS(=O)(=O)Nc1ccc(CNC(=O)/C=C/c2ccc(C(F)(F)F)nc2CC(C)C)cc1` [Example 269, N-(4-Ethenesulfonylamino-benzyl)-3-(2-isobutyl-6-trifluoromethyl-pyridin-3-yl)-acrylamide], the IC50 is 1400 nM.

Regarding `CC(C)Nc1nc(C(F)(F)F)ccc1/C=C/C(=O)NCc1ccc(NS(=O)(=O)C(F)(F)F)cc1` [Example 270, 3-(2-Isopropylamino-6-trifluoromethyl-pyridin-3-yl)-N-(4-trifluoromethanesulfonylamino-benzyl)-acrylamide], the IC50 was above 10000 nM.

As for `CCC/C(=C/C(=O)NCc1ccc(NS(C)(=O)=O)c(Cl)c1)c1ccc(C(F)(F)F)nc1CCC` [Example 271], the IC50 was 1300 nM.

`CCC/C(=C\C(=O)NCc1ccc(NS(C)(=O)=O)c(Cl)c1)c1ccc(C(F)(F)F)nc1CCC` [Example 272]: the IC50 came to 740 nM.
